Test results published in patent US9102697B2, “Trioxacarcins and uses thereof” (President and Fellows of Harvard College, priority 2010, dated 2015).

Tested on: self-complementary duplex 12-mer d(AATTACGTAATT) (SEQ ID NO: 1)
Test: DNA alkylation detected by LC/MS
Format: biochemical
Details: for covalent DNA-small molecule complex formed (LC/MS chromatogram): oligonucleotide 100 μM, 1 equiv compound, pH 7 buffer; for products from alkylated oligonucleotide after piperidine treatment: 1.0 M piperidine, 30 minutes at 95 °C
Excerpt: Next, we performed a set of experiments to determine whether the DC-45-A2 and dideoxy-DC-45-A2 complexes observed by DNA-gel electrophoresis were covalent or not. A liquid chromatography-mass spectrometry (LC/MS) method was developed for the detection of DNA oligonucleotides and covalent DNA-small molecule complexes. The mass spectrometer was used in a negative ion mode under conditions that had been optimized for the detection of single-stranded nucleic acids.
To solutions of the oligonucleotide d(AATTACGTAATT) (SEQ ID NO: 1) (100 μM) in pH 7 buffer were added, in three separate reaction vials, 1 equiv of DC-45-A2, 1 equiv of iso-DC-45-A2, or 1 equiv of dideoxy-DC-45-A2. After incubation for 24 h at 23° C., it was evident from the LC/MS chromatogram that a covalent DNA-small molecule complex had formed in both the DC-45-A2 and dideoxy-DC-45-A2 reaction mixtures but not in the iso-DC-45-A2 reaction mixture (FIG. 13). The alkylated single-stranded oligonucleotide eluted as a signal that was separate from the non-alkylated oligonucleotide. […] The absence of an iso-DC-45-A2 complex is consistent with the absence of reactivity of this compound towards the oligonucleotide under the alkylation conditions in the DNA-gel experiment described in the section above. The IC50 values of the three compounds in antiproliferative assays are also depicted in FIG. 13.
To test whether or not alkylation by DC-45-A2 and dideoxy-DC-45-A2 occurs at the N7 guanine site via the same epoxide opening mechanism observed for trioxacarcin A, we treated samples of alkylated oligonucleotide with piperidine to provide a product solution with a final concentration of 1.0 M in piperidine. […] This fragmentation is consistent with induced single strand cleavage of the type observed in the Maxam-Gilbert G-specific reaction that is associated with N7 guanine alkylation. In the present case, the guanine residue has been excised and the phosphates at the 3′ and 5′ positions have been eliminated to give the two fragment strands.
General Method: To a solution of dsDNA [ds(AATTACGTAATT) (SEQ ID NO: 1), 1.07 mM] in alkylation buffer (86.7 μL, see above for preparation of solutions) in a 1.7-mL centrifuge tube was added a solution of DC-45-A2 in DMSO (2.00 μL, 5 mM). The sample was votexed, then rotated end-over-end at 23° C. for 2 h. The sample was stored at 4° C. for 16 h. The sample was diluted to a concentration of 5 μM of dsDNA. A 10 μL sample of the diluted solution was injected into a short oligonucleotide column (gradient elution with […] TEAB buffer and methanol, flow rate 150 μL/min) and the column output was monitored by mass spectrometry in a negative ionization mode. The doubly deionized DC-45-A2-alkylated single-stranded DNA oligonucleotide (mass/charge=2079.4) was detected at 9.32 min.
To five separate solutions (designated as vials 1-5) of duplex DNA oligonucleotide d(AATTACGTAATT) (SEQ ID NO: 1) (0.72 mM [concentration of the DNA duplex] in alkylation buffer [see paragraph above for preparation], 13.9 μL, 10 nmol, 1 equiv) in alkylation buffer (84.1 μL) were added, respectively, DC-45-A2 (5.0 mM solution in dimethylsulfoxide, 2.0 μL, 10 nmol, 1.0 equiv, vials 1 and 2), iso-DC-45-A2 (5.0 mM solution in dimethylsulfoxide, 2.0 μL, 10 nmol, 1.0 equiv, vial 3), and dideoxy-DC-45-A2 (5.0 mM solution in dimethylsulfoxide, 2.0 μL, 10 nmol, 1.0 equiv, vials 4 and 5). The samples were vortexed, then rotated end-over-end at 23° C. After 23 h 30 min, vials 2 and 5 were diluted with piperidine (10 μL) and placed in a heating block at 95° C. After 30 min, vials 2 and 5 were cooled by centrifugation for 30 seconds (VWR Labnet C-1200 Minicentrifuge). After a total reaction time of 24 h, a 5-μL aliquot was removed from each of the five reaction mixtures. Each aliquot was diluted with alkylation buffer (95 μL, see above for preparation). […]

## COc1c2c(c(O)c3c4c(c(C)cc13)[C@H]1O[C@]3(C(OC)OC)O[C@H]1[C@](O)(O4)[C@@]31CO1)C(=O)[C@@H](O)C[C@@H]2O [iso-DC-45-A2, 11,12,13,15-tetraepi-DC-45-A2]
24 h at 23 °C
  covalent DNA-small molecule complex formed (LC/MS chromatogram): not

## DC-45-A2
  products from alkylated oligonucleotide after piperidine treatment: pTAATT and AATTACp
24 h at 23 °C
  covalent DNA-small molecule complex formed (LC/MS chromatogram): had formed

## Dideoxy-DC-45-A2
  products from alkylated oligonucleotide after piperidine treatment: pTAATT and AATTACp
24 h at 23 °C, compared with DC-45-A2 complex
  relative abundance of the covalent complex: greater relative abundance
24 h at 23 °C
  covalent DNA-small molecule complex formed (LC/MS chromatogram): had formed
